# From paper PMC3724450 (Nature communications, 2013)
# Tested on: HCC4017
# Assay: Cell viability assay, patient matched pair
# Conditions: patient matched cancer vs normal lines
smiles,measurement,value
"COC(=O)CNC(=O)C(=O)OC [D1070, dimethyloxalylglycine]",selectivity for cancer vs. normal patient matched cells,only five-fold selectivity for cancer
